What all share (type): cell-based
The subject of one experiment is AR promoter. Kind of experiment: AR promoter luciferase assay (pAR-luc) in EnzR2-CWR22Rv1 cells. To be noted: 1 ug/mL Cis, FIG. 5B. From the text:
In addition to function via altering the AR-ubiquitination to decrease ARv7 (and AR) protein expression and modulating the Malat1/SF2 RNA splicing complex to decrease ARv7 mRNA biosynthesis/expression, it is interesting to see the potential 3rd molecular mechanism at transcriptional regulation to alter the AR expression for Cis to decrease ARv7 mRNA expression. […] A 3.6 kb AR promoter was then constructed into pGL3 luciferase vector (pAR-luc) and transfected pAR-luc into EnzR2-CWR22Rv1 cells for luciferase assay.

The next experiment concerns the target T1, ARv7 (Homo sapiens, UniProt P10275).
T1 construct: endogenous in cells; host or cells: EnzR1 C4-2, EnzR3 C4-2B, EnzR2 CWR22Rv1
T1 sequence (P10275 1-644 isoform P10275-3): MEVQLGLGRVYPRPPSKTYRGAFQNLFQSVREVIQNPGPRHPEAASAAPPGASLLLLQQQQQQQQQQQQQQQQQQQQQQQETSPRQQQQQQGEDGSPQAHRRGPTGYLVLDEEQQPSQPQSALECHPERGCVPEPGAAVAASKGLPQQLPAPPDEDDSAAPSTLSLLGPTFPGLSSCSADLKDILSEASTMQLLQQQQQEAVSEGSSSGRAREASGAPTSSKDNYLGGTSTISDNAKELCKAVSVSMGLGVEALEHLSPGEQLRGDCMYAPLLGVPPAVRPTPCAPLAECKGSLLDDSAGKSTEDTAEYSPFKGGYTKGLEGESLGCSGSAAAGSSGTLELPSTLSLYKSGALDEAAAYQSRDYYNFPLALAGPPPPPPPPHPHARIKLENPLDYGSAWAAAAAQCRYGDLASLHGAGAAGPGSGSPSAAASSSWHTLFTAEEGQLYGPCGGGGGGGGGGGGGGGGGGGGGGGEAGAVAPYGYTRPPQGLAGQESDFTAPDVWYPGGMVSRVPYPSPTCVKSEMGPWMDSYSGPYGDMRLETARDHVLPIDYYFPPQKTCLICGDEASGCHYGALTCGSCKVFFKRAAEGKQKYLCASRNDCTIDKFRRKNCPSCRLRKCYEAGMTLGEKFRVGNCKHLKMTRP
Put plainly: ARv7 protein expression/degradation in CRPC cells (western blot). How it is done:
(§1) To further dissect the mechanism(s) why Cis can decrease ARv7 (and AR) protein expression, first assayed was the Cis effects on ARv7 (and AR) protein stability with protein biosynthesis inhibitor, cycloheximide (CHX) and proteasome inhibitor MG132 in EnzR2-CWR22Rv1 cells.
(§2) For protein degradation, EnzR C4-2 cells were treated with 1 μg/mL Cisplatin for 6 hr. Cycloheximide or MG132 was added for another 4 hrs. For ubiquitination, human kidney epithelial HEK293T cells were grown in DMEM media with 10% FCS. Cells were plated at ˜60% confluency and pGFP-ubiquitin, pAR were transiently transfected into cells using CaCl2 reagent. After 48 hrs. of transfection, cells were treated with 1 μg/mL Cisplatin for 6 hrs. […], MG132, was added for another 4 hrs. Cell extracts were analyzed for AR degradation or AR-ubiquitination by using western blot.
(§3) Cells were lysed in lysis buffer and proteins (50 μg) were separated on 10% SDS/PAGE gel and then transferred onto PVDF membranes (Millipore, Billerica, Mass.). After blocking membranes with 5% milk, they were incubated with appropriate dilutions of specific primary antibodies (anti-AR (N-20), anti-SF2, anti-GFP, anti-GAPDH, anti-a-tubulin). The blots were incubated with HRP-conjugated secondary antibodies and visualized using ECL system (Thermo Fisher Scientific, Rochester, N.Y.).
On the technique in general: Immunoblotting shows a protein as a band on a membrane.

In the next experiment the test system is Enz-S1-C4-2 cells. Put plainly: Enz sensitivity after 2 months treatment (MTT proliferation). Conditions: after 10 uM Enz plus 0.2 ug/mL (0.66 uM) Cis for 2 months, FIG. 3C. The procedure:
(§4) Cells were seeded in 24-well plates (5×10^3 cells/500 μL media per well) and cultured for 0, 2, 4 and 6 days. Cells were harvested and cell numbers and absorbance were calculated and recorded after using yellow tetrazolium MTT (3-(4, 5-dimethylthiazolyl-2)-2,5-diphenyltetrazolium bromide agent.

Another experiment concerns EnzR3-C4-2B cells. Put plainly: MTT cell proliferation assay, EnzR3-C4-2B. Conditions: FIG. 2H. The procedure: as §4
For orientation: Tetrazolium dyes change colour on reduction, which living cells bring about.

The next experiment has as its system AR. Kind of experiment: AR protein expression/degradation in CRPC cells (western blot). How it is done:
as §1, §2, §3

A further experiment deals with T2, AR mutant AR876 (Homo sapiens, UniProt P10275, F877L).
T2 construct: expressed in transfected cells; host or cells: PC3
T2 sequence (P10275 1-920 F877L): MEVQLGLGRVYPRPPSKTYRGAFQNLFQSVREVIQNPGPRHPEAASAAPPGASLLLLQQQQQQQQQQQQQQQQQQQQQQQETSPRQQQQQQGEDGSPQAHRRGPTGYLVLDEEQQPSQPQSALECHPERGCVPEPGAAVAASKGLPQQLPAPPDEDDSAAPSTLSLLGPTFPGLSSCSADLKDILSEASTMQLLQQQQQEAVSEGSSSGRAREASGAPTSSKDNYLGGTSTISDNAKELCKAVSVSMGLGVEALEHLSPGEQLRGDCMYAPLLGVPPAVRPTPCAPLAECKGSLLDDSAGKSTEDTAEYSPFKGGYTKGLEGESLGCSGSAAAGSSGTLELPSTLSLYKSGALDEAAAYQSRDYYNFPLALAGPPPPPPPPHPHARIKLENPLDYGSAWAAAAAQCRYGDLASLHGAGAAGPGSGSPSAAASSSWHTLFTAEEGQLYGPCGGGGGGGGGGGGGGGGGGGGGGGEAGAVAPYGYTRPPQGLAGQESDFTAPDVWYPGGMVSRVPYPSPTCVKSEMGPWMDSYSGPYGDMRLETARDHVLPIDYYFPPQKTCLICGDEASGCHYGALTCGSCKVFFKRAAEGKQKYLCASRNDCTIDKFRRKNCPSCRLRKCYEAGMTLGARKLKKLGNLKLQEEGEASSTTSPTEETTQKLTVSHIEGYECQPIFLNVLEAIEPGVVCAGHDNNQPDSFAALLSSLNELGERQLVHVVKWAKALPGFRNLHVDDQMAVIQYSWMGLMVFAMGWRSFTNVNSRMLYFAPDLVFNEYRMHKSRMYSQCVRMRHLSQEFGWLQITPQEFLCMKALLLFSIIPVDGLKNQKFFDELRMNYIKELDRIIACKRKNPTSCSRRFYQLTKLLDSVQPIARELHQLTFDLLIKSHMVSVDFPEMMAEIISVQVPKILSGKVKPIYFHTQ
Put plainly: AR876 expression in PC3 cells stably transfected with AR876-cDNA. Conditions: FIG. 1G. How it is done: as §3

The mark [1] stands for this setting: EnzR2-CWR22Rv1 cells, after 6 hrs treatment, FIG. 4A.

In the case of “(SP-4-2)-diamminedichloroplatinum(II) [Cis]”, the “AR promoter activity (pAR-luc luciferase)” value in the experiment with AR promoter is “can also decrease AR mRNA expression at transcriptional level via altering AR promoter activity”. At ARv7 (CWR22Rv1 cells, Cis plus CHX compared to CHX alone, FIG. 4C), the “ARv7 (and AR877) degradation” value is recorded as “can facilitate ARv7 (and AR877) degradation”. Moreover, the ARv7 expression entry on ARv7 (EnzR1-C4-2 cells, increasing Cis, FIG. 1B) is “diminishing ARv7 was detected upon increasing Cis”. The ARv7 protein degradation result on ARv7 (setting [1]) is “could degrade ARv7 (and AR)”. The Enz sensitivity in the experiment on Enz-S1-C4-2 cells is on record as 62%. For the same substance, the “IC50 (cell growth)” value in the experiment with EnzR3-C4-2B cells came out at 3.3 µg/mL. Further, in the experiment with EnzR3-C4-2B cells (read-out: IC50 (cell growth)), the IC50 (usually the concentration that gives 50% inhibition) amounted to 10.9 µM. Moreover, the AR expression entry is “could suppress the AR” with AR (EnzR1-C4-2 cells, FIG. 1B) and “could suppress the AR” in the experiment on AR (EnzS1-C4-2 cells, FIG. 1A). The AR protein degradation entry in the experiment on AR (setting [1]) is listed as “could degrade ARv7 (and AR)”. Moreover, the AR degradation entry with AR (EnzR3-C4-2 cells, Cis at 1 ug/mL, FIG. 2J) was “may degrade AR”; in the experiment with AR (EnzS1-C4-2 cells, Cis at 1-2 ug/mL, FIG. 2I) it was “could degrade AR”. The AR876 expression result on AR mutant AR876 is recorded as “can also decrease”.
